# Measured values: patent US20050037949A1, “Mannose binding lectin and uses thereof” (priority 2002, published 2005)
# Non-standard residues stand in square brackets, D forms with d. No end group written: not given here. *: point of attachment. Dnp = O=[N+]([O-])c1ccc(*)c([N+](=O)[O-])c1; 2Abz = Nc1ccccc1C(=O)O
# Legend:
# [1] = test system: MASPs in purified MBL-MASP complex; assay: Substrate cleavage assay: kinetic constants of MASP proteolytic activity on synthetic C4-based substrates; format: biochemical; conditions: proteolytic activity of MASPs in purified MBL-MASP complex on the synthetic substrate; sigmoidal kinetics
# Experimental: For quantitative measurements, typically the signal emitted by the label is measured from the beginning of the reaction and the results used to obtain an initial rate. Substrates consisting only of the residues N-terminal to the cleavage site of C4 show normal Michaelis-Menten kinetics for their cleavage by both C1s and the MBL-MASP complex. This means that the dependence of the initial velocity for the cleavage reaction on substrate concentration can be described by a rectangular hyperbola and the constants Km (Michaelis constant which equates to the affinity between enzyme and substrate) and Vmax (maximal velocity of the reaction) can be derived from a non-linear regression fit of the data. […]
# The substrate (2Abz-[…]-Lys(Dnp)-NH2) includes the four amino acids before and after the C4 cleavage site and an aminobenzoic acid (Abz) fluorescent group attached to its N-terminal end. […] The change in fluorescence can then be measured and is proportional to the proteolytic activity of the enzyme.
# The substrate and enzymes (C1s (10 μg/mL) or purified MBL material) are incubated for several minutes in a fluorescence plate reader set at 37° C. 100 μL of diluted substrate is then transferred into wells containing 100 μL diluted enzyme (C1s or purified MBL material) and the kinetics of fluorescence is measured as follows: excitation=320 nm; emission=420 nm. […]
# [2] = test system: C4b deposition from MBL-deficient human serum on solid-phase mannan; assay: Functional complement (C4) deposition assay; format: biochemical; conditions: for Complement activation capacity (in words): Example 4 titration, 1-100 μg/ml
# Experimental: All quantitation assays were standardised using an international, primary standard pool serum (Statens Serum Institut, Copenhagen, Denmark), containing 3.3 μg MBL/ml serum. For the sandwich ELISA and the C4 deposition assay, a standard curve was made with 1:25, 1:50, 1:75, 1:100, 1:150 and 1:200 dilutions of this serum, tested in triplicate. Standard dilutions for the mannan binding ELISA were 1:25, 1:50, 1:100, 1:150, 1:200, 1:300 and 1:400. Diluents were as detailed below. An in-house secondary control was prepared from pooled normal donor plasma and run in triplicate on each test plate, the results plotted for each run. Results of any test runs, in which values obtained for the in-house control MBL were outside +/−2SD from the previously determined mean value, led to rejection of the whole run. Run to run standard curves were overlayed to ensure a constant slope and thus provide another sensitive means of quality control.
# Microtitre plates (as above) were coated overnight at 4° C. with 1 μg/mL mannan (Sigma-Aldrich Pty Ltd, Castle Hill, Australia) in fresh 50 mM carbonate-bicarbonate buffer, pH 9.6. Normal donor plasmas were tested in triplicate, diluted to 1:25 in TBST with 15 mM CaCl2, pH 7.2 which was also the wash buffer. A 1:10 dilution was also tested and interpreted only to confirm low or near absent levels of C4 deposition in donors with low amounts of MBL. After 90 minutes at 22° C., wells were washed 5 times and MBL-deficient human serum (completely deficient in MBL, obtained with informed consent) diluted 1:20 in barbital buffer, […], 10 mM sodium barbitone and 5 mM CaCl2 was added to wells and incubated at 22° C. for 30 minutes to enable complement activation. Wells were washed 5 times and biotinylated rabbit anti-human C4 (Sigma-Aldrich Pty Ltd) biotinylated using Biotin Tag (Sigma-Aldrich Pty Ltd) which was added at 1:1500 in TBST. Following incubation at 22° C. for 90 minutes, wells were washed 5 times and 1:500 ExtrAvidin peroxidase (Sigma-Aldrich Pty Ltd) in TBST was added and incubated at 22° C. for 40 minutes. Colour development and reading was as for the quantitation assays.
# 1 μl of Statens Serum Institut (SSI) MBL Standard was arbitrarily assigned 1 unit of C4 deposition activity. The assay was standardised against the SSI standard. Between run CV for the assay at 1:25 was 9.4%.
# The positive control for MASP-2 activity was MASP containing, affinity-purified MBL complex. All fractions obtained in Example 1 were considered MASP-depleted with MASP activity measured as slope/sec less than 2.3 (range 0.5-2.3). […] Both MASP-depleted fractions and the MBL-MASP complex were titrated to provide MBL protein concentrations at 1 to 100 μg/ml. Fractions were assayed in parallel in the mannan-binding and C4-deposition assays as described in this document. The result from the Mannan-binding assay was plotted against C4 activity for each fraction.
# The fractions supplied in Example 3 were pooled according to total protein concentration. […] The two MASP-depleted MBL pools were again titrated in the range of 1-100 μg/ml in parallel with the MBL-MASP complex. All samples were assayed on both the Mannan-binding and C4-deposition assays in parallel. Actual MBL quantification (mannan-binding assay) results were graphed against corresponding C4 activation capability for the fraction.
substance,measurement,setting,value
"2Abz-GLQRALEI-Lys(Dnp)-NH2 ([2Abz]GLQRALEIK(Dnp)-NH2; N-terminus assumed; SMILES CC[C@H](C)[C@H](NC(=O)[C@H](CCC(=O)O)NC(=O)[C@H](CC(C)C)NC(=O)[C@H](C)NC(=O)[C@H](CCCNC(=N)N)NC(=O)[C@H](CCC(N)=O)NC(=O)[C@H](CC(C)C)NC(=O)CNC(=O)c1ccccc1N)C(=O)N[C@@H](CCCCNc1ccc([N+](=O)[O-])cc1[N+](=O)[O-])C(N)=O) [C4 (P4-P4′), quenched fluorescent substrate with the four amino acids before and after the C4 cleavage site]",Affinity constant K0.5,[1],6.50 ± 0.32 µM
"MASP-depleted Frac. 5: fraction 5 of purified MASP-depleted MBL from the Example 1 Sephacryl S-300 column, 80 μg/mL",C4,"[2]; MBL 1.32 ug/mL, Table 2",0.081 U/ul
same,C4,"[2]; MBL 2.49 ug/mL, Table 2",0.137 U/ul
same,C4,"[2]; MBL 5.11 ug/mL, Table 2",0.304 U/ul
same,C4,"[2]; MBL 7.83 ug/mL, Table 2",0.417 U/ul
same,C4,"[2]; MBL 8.79 ug/mL, Table 2",0.465 U/ul
same,C4,"[2]; MBL 10 ug/mL, Table 2",0.671 U/ul
same,C4,"[2]; MBL 12 ug/mL, Table 2",0.716 U/ul
same,C4,"[2]; MBL 16 ug/mL, Table 2",0.805 U/ul
same,C4,"[2]; MBL 20 ug/mL, Table 2",0.762 U/ul
same,C4,"[2]; MBL 30 ug/mL, Table 2",0.906 U/ul
same,C4,"[2]; MBL 40 ug/mL, Table 2",xs
same,C4,"[2]; MBL 80 ug/mL, Table 2",xs
"MASP Pool 8-9: pool of MASP-depleted MBL fractions 8 and 9, total protein 35 μg/ml",Complement activation capacity (in words),[2],reached the high assay limit
same,C4,"[2]; MBL 1.122 ug/mL, Table 3",0.049 U/ul
same,C4,"[2]; MBL 2.032 ug/mL, Table 3",0.108 U/ul
same,C4,"[2]; MBL 4.278 ug/mL, Table 3",0.189 U/ul
same,C4,"[2]; MBL 6.506 ug/mL, Table 3",0.31 U/ul
same,C4,"[2]; MBL 7.362 ug/mL, Table 3",0.403 U/ul
same,C4,"[2]; MBL 8.995 ug/mL, Table 3",0.435 U/ul
same,C4,"[2]; MBL 10.205 ug/mL, Table 3",0.48 U/ul
same,C4,"[2]; MBL 12.718 ug/mL, Table 3",0.552 U/ul
same,C4,"[2]; MBL 20 ug/mL, Table 3",0.595 U/ul
same,C4,"[2]; MBL 30 ug/mL, Table 3",0.776 U/ul
same,C4,"[2]; MBL 35 ug/mL, Table 3",0.969 U/ul
"MASP-depleted Pool 3-7: pool of MASP-depleted MBL fractions 3-7, total protein 85 μg/ml",Complement activation capacity (in words),[2],reached excess
same,C4,"[2]; MBL 1.124 ug/mL, Table 3",0.043 U/ul
same,C4,"[2]; MBL 1.677 ug/mL, Table 3",0.104 U/ul
same,C4,"[2]; MBL 3.905 ug/mL, Table 3",0.25 U/ul
same,C4,"[2]; MBL 5.617 ug/mL, Table 3",0.38 U/ul
same,C4,"[2]; MBL 7.151 ug/mL, Table 3",0.506 U/ul
same,C4,"[2]; MBL 7.796 ug/mL, Table 3",0.55 U/ul
same,C4,"[2]; MBL 9.377 ug/mL, Table 3",0.596 U/ul
same,C4,"[2]; MBL 14.045 ug/mL, Table 3",0.718 U/ul
same,C4,"[2]; MBL 20 ug/mL, Table 3",0.825 U/ul
same,C4,"[2]; MBL 40 ug/mL, Table 3",0.954 U/ul
same,C4,"[2]; MBL 80 ug/mL, Table 3",xs
same,C4,"[2]; MBL 85 ug/mL, Table 3",xs
"MASP-depleted Frac. 3: fraction 3 of purified MASP-depleted MBL from the Example 1 Sephacryl S-300 column, 40 μg/mL",C4,"[2]; MBL 1.02 ug/mL, Table 2",0.107 U/ul
same,C4,"[2]; MBL 2.1 ug/mL, Table 2",0.202 U/ul
same,C4,"[2]; MBL 2.57 ug/mL, Table 2",0.359 U/ul
same,C4,"[2]; MBL 5.65 ug/mL, Table 2",0.568 U/ul
same,C4,"[2]; MBL 7.97 ug/mL, Table 2",0.761 U/ul
same,C4,"[2]; MBL 10.53 ug/mL, Table 2",0.818 U/ul
same,C4,"[2]; MBL 12 ug/mL, Table 2",xs
same,C4,"[2]; MBL 16 ug/mL, Table 2",xs
same,C4,"[2]; MBL 20 ug/mL, Table 2",xs
same,C4,"[2]; MBL 30 ug/mL, Table 2",xs
same,C4,"[2]; MBL 40 ug/mL, Table 2",xs
